Values quoted from earlier work in patent US20070196528A1, “Cosmetic composition based on caper flower bud extract” (GATTEFOSSE S.A.S., priority 2004, published 2007).

System: oedemas in rats
Conditions: Pharmazie 43 (1988); cited from earlier work

Compound	Anti-inflammatory activity
CC(C)=CCC/C(C)=C/CC/C(C)=C/CC/C(C)=C/CC/C(C)=C\CC/C(C)=C\CC/C(C)=C\CC/C(C)=C\CC/C(C)=C\CC/C(C)=C\CC/C(C)=C\CC/C(C)=C\CC/C(C)=C\CO [Cappaprenol-13]	providing this anti-inflammatory activity
CC(C)=CCC/C(C)=C/CC/C(C)=C/CC/C(C)=C/CC/C(C)=C/CC/C(C)=C/CC/C(C)=C/CC/C(C)=C/CC/C(C)=C/CC/C(C)=C/CC/C(C)=C/CC/C(C)=C/CC/C(C)=C/CC/C(C)=C/CO [Cappaprenol-14]	providing this anti-inflammatory activity
Cappaprenol-12	providing this anti-inflammatory activity
